In patent publication US20250059179A1, “Heterocyclic Compounds and Methods of Use” (AMGEN INC., priority 2021, published 2025):
pIC50: −log10 of the molar value. Read-outs that look alike come from different tables or passages of the source.

Assays:
[1] = molecular target: His-tagged KRAS G12D protein (Homo sapiens, UniProt P01116, G12D); experiment: KRAS G12D TR-FRET Assay; format: binding; settings: biotinylated KRPep-2d substrate, 10 μM GDP;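 further: europium anti-His antibody paired with streptavidin-d2 as FRET partners, initial 30 min incubation, then peptide 1 h and detection reagents 1 h, all at room temperature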
[2] = molecular target: GDP-bound KRAS protein (aa 1-169), containing both G12D and C118A amino acid substitutions (Homo sapiens, UniProt P01116, C118A/G12D); experiment: KRAS G12D Coupled Nucleotide Exchange Assay; format: biochemical; settings: 2 h compound pre-incubation; SOS-mediated nucleotide exchange, cRAF AlphaScreen readout;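 further: IC50 obtained by fitting the AlphaScreen signal with a four-parameter logistic curve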
[3] = system: Phosphorylation of ERK1/2 in A-427 cells; experiment: Phospho-ERK1/2 MSD Assay; format: cell-based; settings: 2 h compound treatment, read-out: pERK (A427 cells) IC50
Method: A-427 (ATCC® HTB-53™) cells were cultured in RPMI 1640 Medium (ThermoFisher Scientific 11875093) containing 10% fetal bovine serum (ThermoFisher Scientific 16000044) and 1× penicillin-streptomycin-glutamine (ThermoFisher Scientific 10378016). Sixteen hours prior to compound treatment, A-427 cells were seeded in 96-well cell culture plates at a density of 25,000 cells/well and incubated at 37° C., 5% CO2. A compound dose-response titration was diluted in growth media, added to appropriate wells of a cell culture plate, and then incubated at 37° C., 5% CO2 for 2 h. Following compound treatment, cells were washed with ice-cold Dulbecco's phosphate-buffered saline, no Ca^2+ or Mg^2+ (ThermoFisher Scientific 14190144), and then lysed in RIPA buffer (50 mM Tris-HCl pH 7.5, 1% Igepal, 0.5% sodium deoxycholate, 150 mM NaCl, and 0.5% sodium dodecyl sulfate) containing protease inhibitors (Roche 4693132001) and phosphatase inhibitors (Roche 4906837001). Phosphorylation of ERK1/2 in compound-treated lysates was assayed using Phospho-ERK1/2 Whole Cell Lysate kits (Meso Scale Discovery K151DWD) according to the manufacturer's protocol. Assay plates were read on a Meso Scale Discovery Sector Imager 6000, and data were analyzed using a 4-parameter logistic model to calculate IC50 values.

Chain of His-tagged KRAS G12D protein (P01116 1-188 isoform P01116-2 G12D): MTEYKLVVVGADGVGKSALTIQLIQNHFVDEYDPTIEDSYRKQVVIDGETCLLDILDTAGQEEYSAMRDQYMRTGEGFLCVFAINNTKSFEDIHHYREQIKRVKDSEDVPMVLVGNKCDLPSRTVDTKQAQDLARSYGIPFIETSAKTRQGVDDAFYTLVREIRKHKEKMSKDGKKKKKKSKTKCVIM
Chain of GDP-bound KRAS protein (aa 1-169), containing both G12D and C118A amino acid substitutions (P01116 1-169 isoform P01116-2 G12D/C118A): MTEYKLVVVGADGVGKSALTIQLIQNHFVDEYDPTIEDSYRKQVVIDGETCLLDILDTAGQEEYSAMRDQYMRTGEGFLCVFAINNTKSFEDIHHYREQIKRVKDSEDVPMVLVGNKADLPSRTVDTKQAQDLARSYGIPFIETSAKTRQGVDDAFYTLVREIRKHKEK

SMILES	pIC50 [1]	Avg 2 h Coupled Exchange IC50 [2] [nM]	pIC50 ([3]; Homo sapiens, A-427, 2 h)	pIC50 [3]
Nc1nc2c(-c3c(Cl)cc4c(N5CC6CNCC5C6)nc(OC[C@@]56CCCN5C[C@H](F)C6)nc4c3F)ccc(F)c2s1 (single isomer, unassigned) [Example 29]	6.97	13	5.33	–
Nc1nc2c(-c3c(Cl)cc4c(N5CC6CNCC5C6)nc(OC[C@@]56CCCN5C[C@H](F)C6)nc4c3F)ccc(F)c2s1 (single isomer, unassigned) [Example 30]	7.02	15	–	5.10
Nc1nc2c(-c3c(Cl)cc4c(N5C6CCNCC5CC6)nc(OC[C@@]56CCCN5C[C@H](F)C6)nc4c3F)ccc(F)c2s1 (single isomer, unassigned) [Example 32]	7.27	16	–	6.79
Nc1nc2c(-c3c(Cl)cc4c(N5C6CCNCC5CC6)nc(OC[C@@]56CCCN5C[C@H](F)C6)nc4c3F)ccc(F)c2s1 (single isomer, unassigned) [Example 33]	7.20	10	–	6.06
Nc1nc2c(-c3c(Cl)cc4c(N5CCNCC5)nc(OC[C@]56CCCN5C[C@H](F)C6)nc4c3F)cccc2s1 [Example 46, 4-(6-chloro-8-fluoro-2-(((2R,7aR)-2-fluorotetra-hydro-1H-pyrrolizin-7a(5H)-yl)methoxy)-4-(piperazin-1-yl)quinazolin-7-yl)benzo[d] thiazol-2-amine]	–	–	5.40	–
CN1CCC[C@H]1CNc1nc(N2CCNCC2)c2cc(Cl)c(-c3cccc4sc(N)nc34)c(F)c2n1 [Example 70, 4-(6-chloro-8-fluoro-2-((((S)-1-methyl-pyrrolidin-2-yl)methyl)amino)-4-(piperazin-1-yl)quinazolin-7-yl)benzo[d] thiazol-2-amine]	4.97	2140	–	–
CC(=O)N1CCC[C@H]1COc1nc(N2CCNCC2)c2cc(Cl)c(-c3cccc4sc(N)nc34)c(F)c2n1 [Example 71, 1-((2S)-2-(((7-(2-aminobenzo[d]thiazol-4-yl)-6-chloro-8-fluoro-4-(piperazin-1-yl)quinazolin-2-yl)oxy)methyl)pyrrolidin-1-yl)ethan-1-one]	5.40	2530	–	–
Nc1nc2c(-c3c(Cl)cc4c(N5CCNCC5)nc(OCC56CCC(CC5)N6)nc4c3F)cccc2s1 [Example 75, 4-(2-(((1s,4s)-7-azabicyclo[2.2.1]heptan-1-yl)methoxy)-6-chloro-8-fluoro-4-(piperazin-1-yl)quinazolin-7-yl)benzo[d] thiazol-2-amine]	5.73	797	–	–
CCN1CCC(Oc2nc(N3CCNCC3)c3cc(Cl)c(-c4cccc5sc(N)nc45)c(F)c3n2)CC1 [Example 128, 4-(6-chloro-2-((1-ethylpiperidin-4-yl)oxy)-8-fluoro-4-(piperazin-1-yl)quinazolin-7-yl)benzo[d]thiazol-2-amine]	5.83	411	–	–
Cc1cc(-c2c(Cl)cc3c(N4CCNCC4)nc(OC[C@@H]4CCCN4C)nc3c2F)c2nc(N)sc2c1 [Example 129, 4-(6-chloro-8-fluoro-2-(((S)-1-methylpyrrolidin-2-yl)methoxy)-4-(piperazin-1-yl)quinazolin-7-yl)-6-methylbenzo[d]thiazol-2-amine]	5.28	1090	–	–
CN1CCC[C@H]1COc1nc(N2CCNCC2)c2cc(Cl)c(-c3ccc(C(F)(F)F)c4sc(N)nc34)c(F)c2n1 [Example 131, 4-(6-chloro-8-fluoro-2-(((S)-1-methylpyrrolidin-2-yl)methoxy)-4-(piperazin-1-yl)quinazolin-7-yl)-7-(trifluoromethyl)benzo [d]thiazol-2-amine]	5.85	735	–	–
CN1CCC[C@H]1COc1nc(N2CCNCC2)c2cc(F)c(-c3cccc4sc(N)nc34)c(F)c2n1 [Example 134, 4-(6,8-difluoro-2-(((S)-1-methylpyrrolidin-2-yl)methoxy)-4-(piperazin-1-yl)quinazolin-7-yl)benzo[d]thiazol-2-amine]	5.62	391	–	–
Cc1c(-c2ccc(F)c3sc(N)nc23)ccc2c(N3C[C@H]4CC[C@@H](C3)N4)nc(OC[C@@]34CCCN3C[C@H](F)C4)nc12 [Example 139, 4-(4-((1R,5S)-3,8-diazabicyclo[3.2.1]octan-3-yl)-2-(((2R,7aS)-2-fluorotetrahydro-1H-pyrrolizin-7a(5H)-yl)methoxy)-8-methylquinazolin-7-yl)-7-fluorobenzo[d]thiazol-2-amine]	7.96	3	–	–
Nc1nc2c(-c3ccc4c(N5C[C@H]6CC[C@@H](C5)N6)nc(OC[C@@]56CCCN5C[C@H](F)C6)nc4c3F)ccc(F)c2s1 [Example 140, 4-(4-((1R,5S)-3,8-diazabicyclo[3.2.1]octan-3-yl)-8-fluoro-2-(((2R,7aS)-2-fluorotetrahydro-1H-pyrrolizin-7a(5H)-yl)methoxy)quinazolin-7-yl)-7-fluorobenzo[d]thiazol-2-amine]	7.92	3	–	–
Nc1nc2c(-c3c(F)cc4c(N5C[C@H]6CC[C@@H](C5)N6)nc(OC[C@@]56CCCN5C[C@H](F)C6)nc4c3F)ccc(F)c2s1 [Example 141, 4-(4-((1R,5S)-3,8-diazabicyclo [3.2.1]octan-3-yl)-6,8-difluoro-2-(((2R,7aS)-2-fluorotetrahydro-1H-pyrrolizin-7a(5H)-yl)methoxy)quinazolin-7-yl)-7-fluorobenzo[d]thiazol-2-amine]	8.70	2	–	–
Nc1nc2c(-c3c(F)cc4c(N5[C@@H]6CC[C@H]5CNC6)nc(OC[C@@]56CCCN5C[C@H](F)C6)nc4c3F)ccc(F)c2s1 [Example 142, 4-(4-((1R,5S)-3,8-diazabicyclo[3.2.1]octan-8-yl)-6,8-difluoro-2-(((2R,7aS)-2-fluorotetrahydro-1H-pyrrolizin-7a(5H)-yl)methoxy)quinazolin-7-yl)-7-fluorobenzo[d]thiazol-2-amine]	8.40	7	–	–
Nc1nc2c(-c3c(F)cc4c(N5C[C@@H]6CC[C@H]5CN6)nc(OC[C@@]56CCCN5C[C@H](F)C6)nc4c3F)ccc(F)c2s1 [Example 143, 4-(4-((1S,4S)-2,5-diazabicyclo[2.2.2]octan-2-yl)-6,8-difluoro-2-(((2R,7aS)-2-fluorotetrahydro-1H-pyrrolizin-7a(5H)-yl)methoxy)quinazolin-7-yl)-7-fluorobenzo[d]thiazol-2-amine]	8.00	8	–	–
CC1=C(c2nc(OC[C@@H]3CCCN3C)nc3c(F)c(-c4cccc5sc(N)nc45)c(Cl)cc23)CCNC1 [Example 147, 4-(6-chloro-8-fluoro-4-(5-methyl-1,2,3,6-tetrahydropyridin-4-yl)-2-(((S)-1-methylpyrrolidin-2-yl)methoxy)quinazolin-7-yl)benzo[d]thiazol-2-amine]	4.95	3550	–	–
Cc1cc2c(N3CCNCC3)nc(OC[C@@H]3CCCN3C)nc2c(F)c1-c1cccc2sc(N)nc12 [Example 155, 4-(8-Fluoro-6-methyl-2-(((S)-1-methylpyrrolidin-2-yl)methoxy)-4-(piperazin-1-yl)quinazolin-7-yl)benzo[d]thiazol-2-amine]	6.73	40	–	–
CN1CCC[C@H]1COc1nc(N2CCNCC2)c2cc(C#N)c(-c3cccc4sc(N)nc34)c(F)c2n1 [Example 156, 7-(2-Aminobenzo[d]thiazol-4-yl)-8-fluoro-2-(((S)-1-methylpyrrolidin-2-yl)methoxy)-4-(piperazin-1-yl)quinazoline-6-carbonitrile]	6.44	189	–	–
CN1CCC[C@H]1COc1nc2c(F)c(-c3ccc(F)c4sc(N)nc34)c(Cl)cc2c(N2CCNCC2)c1C#N [Example 157, 7-(2-Amino-7-fluorobenzo[d]thiazol-4-yl)-6-chloro-8-fluoro-2-(((S)-1-methylpyrrolidin-2-yl)methoxy)-4-(piperazin-1-yl)quinoline-3-carbonitrile]	7.14	23	–	–
CN1C[C@H](F)C[C@H]1COc1nc2c(F)c(-c3ccc(F)c4sc(N)nc34)c(Cl)cc2c(N2[C@@H]3CC[C@H]2CNC3)c1C#N [Example 160, 7-(2-amino-7-fluorobenzo[d]thiazol-4-yl)-4-((1R,5S)-3,8-diazabicyclo[3.2.1]octan-8-yl)-6-chloro-8-fluoro-2-(((2S,4R)-4-fluoro-1-methylpyrrolidin-2-yl)methoxy)quinoline-3-carbonitrile]	6.05	578	–	–
